The text below walks through data of ChEMBL document CHEMBL4017469, “First insight into structure-activity relationships of selective meprin β inhibitors” (Bioorg Med Chem Lett, 2017).

Data set [1] deals with T1, Meprin A subunit beta (Homo sapiens, UniProt Q16820).
T1 sequence (Q16820 whole entry): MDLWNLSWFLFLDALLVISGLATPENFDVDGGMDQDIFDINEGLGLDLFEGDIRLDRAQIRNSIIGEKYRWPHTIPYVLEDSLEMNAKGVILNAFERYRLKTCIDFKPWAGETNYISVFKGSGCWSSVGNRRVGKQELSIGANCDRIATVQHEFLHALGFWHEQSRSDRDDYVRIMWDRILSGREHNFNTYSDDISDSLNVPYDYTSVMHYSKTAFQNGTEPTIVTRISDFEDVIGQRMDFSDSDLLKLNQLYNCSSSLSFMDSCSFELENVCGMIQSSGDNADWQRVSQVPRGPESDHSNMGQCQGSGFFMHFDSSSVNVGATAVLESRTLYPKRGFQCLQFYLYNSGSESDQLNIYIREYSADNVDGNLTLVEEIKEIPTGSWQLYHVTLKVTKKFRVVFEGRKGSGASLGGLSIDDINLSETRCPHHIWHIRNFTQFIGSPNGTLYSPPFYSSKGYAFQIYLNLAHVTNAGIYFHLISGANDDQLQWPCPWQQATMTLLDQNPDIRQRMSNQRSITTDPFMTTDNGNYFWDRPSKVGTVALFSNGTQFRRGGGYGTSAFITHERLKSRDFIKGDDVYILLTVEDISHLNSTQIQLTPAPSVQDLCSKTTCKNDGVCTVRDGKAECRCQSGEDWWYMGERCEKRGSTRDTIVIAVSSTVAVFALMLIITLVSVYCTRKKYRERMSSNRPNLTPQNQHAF
Description: Inhibition of human meprin beta expressed in baculovirus infected BTI-TN-5B1-4 insect cells using N-benzoyl-L-tyrosylp-aminobenzoic acid as substrate.

For data set [2], the target named is T1, Meprin A subunit beta. Description: Inhibition of recombinant human meprin beta expressed in yeast using Abz-YVAEAPK(Dnp)G-OH as substrate by fluorescence assay.
Data set [3] concerns the target T1, Meprin A subunit beta. The experiment in a line: Inhibition of recombinant human meprin beta expressed in baculovirus infected Sf9 insect cells using (MCA)-EDEDED-(K-epsilon-dnp) as substrate by fluorescence assay.
Data set [4] concerns the target T2, Disintegrin and metalloproteinase domain-containing protein 17 (Homo sapiens, UniProt P78536). Description: Inhibition of recombinant human C-terminal His6-tagged ADAM17 expressed in baculovirus infected Sf21 cells at 200 uM using Abz-LANAVRSSSR-(DapDnp)-NH2 as substrate by fluorescence assay.
For data set [5], the target named is T3, Collagenase 3 (Homo sapiens, UniProt P45452). Description: Inhibition of APMA-activated recombinant human MMP13 expressed in mouse NS0 cells at 200 uM using Mca-PLGL-(DapDnp)-AR-NH2 as substrate by fluorescence assay.
Data set [6] deals with T4, Disintegrin and metalloproteinase domain-containing protein 10 (Homo sapiens, UniProt O14672).
T4 sequence (O14672 whole entry): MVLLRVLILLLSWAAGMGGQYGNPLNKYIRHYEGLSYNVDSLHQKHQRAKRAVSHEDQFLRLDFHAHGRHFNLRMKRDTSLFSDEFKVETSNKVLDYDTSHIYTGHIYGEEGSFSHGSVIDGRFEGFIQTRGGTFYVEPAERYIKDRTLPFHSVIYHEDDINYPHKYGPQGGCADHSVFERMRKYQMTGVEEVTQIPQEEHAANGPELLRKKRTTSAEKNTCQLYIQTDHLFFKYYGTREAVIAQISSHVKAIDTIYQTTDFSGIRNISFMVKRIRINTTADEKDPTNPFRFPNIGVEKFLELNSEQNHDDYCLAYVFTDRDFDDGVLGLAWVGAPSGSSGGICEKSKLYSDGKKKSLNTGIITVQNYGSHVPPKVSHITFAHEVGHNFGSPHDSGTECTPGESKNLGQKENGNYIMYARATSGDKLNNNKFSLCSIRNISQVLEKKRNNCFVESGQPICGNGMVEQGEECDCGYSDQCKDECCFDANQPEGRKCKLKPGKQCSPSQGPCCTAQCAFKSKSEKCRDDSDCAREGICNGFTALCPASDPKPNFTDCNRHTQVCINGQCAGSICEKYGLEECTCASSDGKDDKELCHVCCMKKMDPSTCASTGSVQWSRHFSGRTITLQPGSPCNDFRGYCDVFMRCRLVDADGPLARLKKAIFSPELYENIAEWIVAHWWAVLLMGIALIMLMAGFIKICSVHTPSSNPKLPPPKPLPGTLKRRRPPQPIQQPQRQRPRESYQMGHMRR
Description: Inhibition of recombinant human C-terminal His10-tagged ADAM10 expressed in baculovirus infected Sf21 cells at 200 uM using Abz-LANAVRSSSR-(DapDnp)-NH2 as substrate by fluorescence assay.

The target of data set [7] is T5, 72 kDa type IV collagenase (Homo sapiens, UniProt P08253). The experiment in a line: Inhibition of APMA-activated recombinant human MMP2 expressed in CHO cells at 200 uM using Mca-PLGL-(DapDnp)-AR-NH2 as substrate by fluorescence assay.
T5 sequence (P08253 whole entry): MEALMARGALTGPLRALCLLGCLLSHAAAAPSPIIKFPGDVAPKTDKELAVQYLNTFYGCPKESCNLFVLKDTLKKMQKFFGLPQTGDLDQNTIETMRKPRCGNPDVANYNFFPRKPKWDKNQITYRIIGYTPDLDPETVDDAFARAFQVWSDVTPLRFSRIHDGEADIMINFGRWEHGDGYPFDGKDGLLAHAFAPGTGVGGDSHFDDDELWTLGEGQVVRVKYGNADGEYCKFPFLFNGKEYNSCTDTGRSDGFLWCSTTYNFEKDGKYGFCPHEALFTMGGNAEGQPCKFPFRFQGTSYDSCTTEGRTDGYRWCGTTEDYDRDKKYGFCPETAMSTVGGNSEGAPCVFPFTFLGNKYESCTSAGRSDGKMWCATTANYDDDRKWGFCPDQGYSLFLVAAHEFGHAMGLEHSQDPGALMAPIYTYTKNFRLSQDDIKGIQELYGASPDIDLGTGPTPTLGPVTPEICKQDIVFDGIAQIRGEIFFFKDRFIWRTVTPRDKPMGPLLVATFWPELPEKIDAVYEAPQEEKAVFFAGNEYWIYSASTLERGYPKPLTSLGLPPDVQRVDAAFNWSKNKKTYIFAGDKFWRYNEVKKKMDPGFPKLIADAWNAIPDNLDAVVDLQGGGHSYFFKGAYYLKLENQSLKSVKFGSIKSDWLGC
For data set [8], the species on record is Homo sapiens. Description: Selectivity ratio of IC50 APMA-activated recombinant human MMP2 expressed in CHO cells to IC50 for recombinant human meprin beta expressed in yeast. In kind it is cell-based.
The target in a further data set is T6, Meprin A subunit alpha (Homo sapiens, UniProt Q16819).
T6 sequence (Q16819 whole entry): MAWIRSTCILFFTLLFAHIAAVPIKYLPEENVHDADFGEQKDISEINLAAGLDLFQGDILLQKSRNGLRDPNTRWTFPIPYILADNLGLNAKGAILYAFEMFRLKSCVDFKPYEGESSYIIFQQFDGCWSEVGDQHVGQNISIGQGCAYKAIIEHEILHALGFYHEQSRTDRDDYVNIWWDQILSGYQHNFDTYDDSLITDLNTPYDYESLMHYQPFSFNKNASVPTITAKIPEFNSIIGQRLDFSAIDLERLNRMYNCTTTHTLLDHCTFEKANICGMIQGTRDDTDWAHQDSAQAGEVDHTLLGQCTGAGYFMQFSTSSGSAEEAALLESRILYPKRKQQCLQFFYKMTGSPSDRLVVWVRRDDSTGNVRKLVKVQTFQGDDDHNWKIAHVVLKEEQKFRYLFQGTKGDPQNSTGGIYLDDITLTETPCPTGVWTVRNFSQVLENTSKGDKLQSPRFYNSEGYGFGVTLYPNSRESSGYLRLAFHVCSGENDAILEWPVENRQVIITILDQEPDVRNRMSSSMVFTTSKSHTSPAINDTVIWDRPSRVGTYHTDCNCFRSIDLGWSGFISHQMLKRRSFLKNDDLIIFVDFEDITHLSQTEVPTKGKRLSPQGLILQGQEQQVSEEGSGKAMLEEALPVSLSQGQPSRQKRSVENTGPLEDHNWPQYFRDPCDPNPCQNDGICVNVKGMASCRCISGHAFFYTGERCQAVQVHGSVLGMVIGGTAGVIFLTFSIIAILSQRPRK
The experiment in a line: Inhibition of recombinant human meprin alpha expressed in S2 insect cells using Abz-YVADAPK(Dnp)G-OH as substrate by fluorescence assay.

For data set [9], the target named is T7, Matrix metalloproteinase-9 (Homo sapiens, UniProt P14780). The experiment in a line: Inhibition of APMA-activated recombinant human MMP9 expressed in CHO cells at 200 uM using Mca-PLGL-(DapDnp)-AR-NH2 as substrate by fluorescence assay.
T7 sequence (P14780 whole entry): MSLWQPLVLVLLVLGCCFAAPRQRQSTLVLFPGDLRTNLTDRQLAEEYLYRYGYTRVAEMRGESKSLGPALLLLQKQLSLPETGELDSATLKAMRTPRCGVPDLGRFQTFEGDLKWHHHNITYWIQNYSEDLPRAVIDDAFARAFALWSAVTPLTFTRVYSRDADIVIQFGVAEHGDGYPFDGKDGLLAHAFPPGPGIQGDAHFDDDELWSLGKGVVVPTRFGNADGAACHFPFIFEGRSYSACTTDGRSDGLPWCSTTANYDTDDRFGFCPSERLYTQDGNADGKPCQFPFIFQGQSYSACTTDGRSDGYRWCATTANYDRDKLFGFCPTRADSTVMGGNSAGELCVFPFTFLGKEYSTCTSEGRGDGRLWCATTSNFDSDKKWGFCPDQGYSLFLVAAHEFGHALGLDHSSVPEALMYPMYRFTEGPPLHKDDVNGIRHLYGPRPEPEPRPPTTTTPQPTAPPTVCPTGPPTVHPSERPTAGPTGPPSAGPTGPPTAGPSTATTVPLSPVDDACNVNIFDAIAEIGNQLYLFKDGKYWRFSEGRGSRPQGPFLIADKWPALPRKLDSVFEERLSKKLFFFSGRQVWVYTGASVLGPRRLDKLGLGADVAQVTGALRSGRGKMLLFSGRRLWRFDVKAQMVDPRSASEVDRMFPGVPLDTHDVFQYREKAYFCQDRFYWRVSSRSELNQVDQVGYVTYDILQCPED
The species entered for data set [10] is Homo sapiens. The experiment in a line: Selectivity ratio of IC50 for recombinant human meprin alpha expressed in S2 insect cells to IC50 for recombinant human meprin beta expressed in yeast.
The species entered for data set [11] is Homo sapiens. The experiment in a line: Selectivity ratio of IC50 for recombinant human C-terminal His10-tagged ADAM10 expressed in baculovirus infected Sf21 cells to IC50 for recombinant human meprin beta expressed in yeast.
Data set [12] deals with T5, 72 kDa type IV collagenase. The experiment in a line: Inhibition of APMA-activated recombinant human MMP2 expressed in CHO cells using Mca-PLGL-(DapDnp)-AR-NH2 as substrate by fluorescence assay.
In data set [13] the target is T7, Matrix metalloproteinase-9. The experiment in a line: Inhibition of APMA-activated recombinant human MMP9 expressed in CHO cells using Mca-PLGL-(DapDnp)-AR-NH2 as substrate by fluorescence assay.
In data set [14] the target is T4, Disintegrin and metalloproteinase domain-containing protein 10. Description: Inhibition of recombinant human C-terminal His10-tagged ADAM10 expressed in baculovirus infected Sf21 cells using Abz-LANAVRSSSR-(DapDnp)-NH2 as substrate by fluorescence assay.
Data set [15] concerns the target T3, Collagenase 3. Description: Inhibition of APMA-activated recombinant human MMP13 expressed in mouse NS0 cells using Mca-PLGL-(DapDnp)-AR-NH2 as substrate by fluorescence assay.
The target of data set [16] is T2, Disintegrin and metalloproteinase domain-containing protein 17. Description: Inhibition of recombinant human C-terminal His6-tagged ADAM17 expressed in baculovirus infected Sf21 cells using Abz-LANAVRSSSR-(DapDnp)-NH2 as substrate by fluorescence assay.

In general, Ki refers to a dissociation constant, usually derived from enzyme kinetics or from competition with a known ligand. What is called IC50 is the concentration that inhibits the measured activity by half.

Structures are written as SMILES. Bounds are passed on as bounds.

T2 sequence (P78536 whole entry, the tested form may be a part): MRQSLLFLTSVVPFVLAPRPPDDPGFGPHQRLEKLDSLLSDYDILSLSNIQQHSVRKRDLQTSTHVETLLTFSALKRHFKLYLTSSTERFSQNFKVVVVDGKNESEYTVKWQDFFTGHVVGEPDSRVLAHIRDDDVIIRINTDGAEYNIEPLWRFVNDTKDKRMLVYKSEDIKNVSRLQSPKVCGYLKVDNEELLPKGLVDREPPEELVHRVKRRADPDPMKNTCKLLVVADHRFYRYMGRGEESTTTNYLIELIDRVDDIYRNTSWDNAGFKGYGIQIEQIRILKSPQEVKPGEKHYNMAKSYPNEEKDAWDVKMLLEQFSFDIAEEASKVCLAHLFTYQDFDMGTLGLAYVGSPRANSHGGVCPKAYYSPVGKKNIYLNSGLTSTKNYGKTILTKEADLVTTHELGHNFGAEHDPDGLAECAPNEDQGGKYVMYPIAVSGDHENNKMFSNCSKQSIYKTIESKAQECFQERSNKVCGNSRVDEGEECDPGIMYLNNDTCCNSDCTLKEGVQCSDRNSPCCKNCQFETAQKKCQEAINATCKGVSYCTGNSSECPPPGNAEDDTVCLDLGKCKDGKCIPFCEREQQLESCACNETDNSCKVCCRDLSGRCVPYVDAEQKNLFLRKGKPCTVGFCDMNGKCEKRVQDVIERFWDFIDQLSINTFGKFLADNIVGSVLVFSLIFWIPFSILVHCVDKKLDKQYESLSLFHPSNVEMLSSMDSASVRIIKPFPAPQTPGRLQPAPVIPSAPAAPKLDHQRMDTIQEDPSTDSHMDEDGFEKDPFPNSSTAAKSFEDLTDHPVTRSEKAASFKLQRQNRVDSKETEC

`CCCCC[C@H](CC(=O)NO)C(=O)N[C@H](C(=O)N1CCC[C@H]1CO)C(C)C` [ACTINONIN] came in with a Ki on Meprin A subunit beta [1] of 2 µM.

On to `O=C(CNS(=O)(=O)c1cccc(C(=O)O)c1)NO`, for which the half-inhibitory concentration (IC50) at Meprin A subunit beta [2] worked out at 0.31 µM.

Take `COc1ccc(S(=O)(=O)N(CCc2ccccc2)CC(=O)NO)cc1`: the IC50 on Meprin A subunit beta [2] came to 42.9 µM.

In the case of `O=C(Nc1cc(C(=O)Nc2ccc(S(=O)(=O)O)cc2S(=O)(=O)O)cc(C(=O)Nc2ccc(S(=O)(=O)O)cc2S(=O)(=O)O)c1)Nc1cc(C(=O)Nc2ccc(S(=O)(=O)O)cc2S(=O)(=O)O)cc(C(=O)Nc2ccc(S(=O)(=O)O)cc2S(=O)(=O)O)c1`, the Ki at Meprin A subunit beta [3] turned out to be 0.022 µM.

As for `O=C(CNS(=O)(=O)c1ccc(Cl)cc1)NO`, on Meprin A subunit beta [2], the IC50 amounted to 17.2 µM.

For `O=C(CN(Cc1cccc(C(=O)O)c1)S(=O)(=O)c1ccc(C(=O)O)cc1)NO`, the IC50 on Meprin A subunit beta [2] is 0.32 µM.

Regarding `O=C(CNS(=O)(=O)c1cc(Cl)c(O)c(Cl)c1)NO`, the half-inhibitory concentration (IC50) on Meprin A subunit beta [2] is 0.43 µM.

With `O=C(CN(Cc1cccc(C(=O)O)c1)S(=O)(=O)c1cccc(C(=O)O)c1)NO`, the “inhibition (INH)” value (in [4]; on Collagenase 3 [5]; in [6]; in data set [7]; in data set [9]) was “Not Active” throughout. Moreover, the Ratio IC50 in the data set listed under Homo sapiens [8] was over 100; in the data set filed under Homo sapiens [10], 500; in the data set listed under Homo sapiens [11], over 100. Moreover, the IC50 on Meprin A subunit alpha was found to be 27.4 µM.

For the compound `COc1ccc(S(=O)(=O)N(C)CC(=O)NO)cc1`, the IC50 at Meprin A subunit beta [2] worked out at 32.5 µM.

Consider `COc1ccc(S(=O)(=O)N(CC(=O)NO)Cc2ccc(C(=O)O)cc2)cc1`, for which the IC50 at Meprin A subunit beta [2] was found to be 0.98 µM.

As for `O=C(O)Cc1ccc(S(=O)(=O)NCC(=O)NO)cc1`, the IC50 on Meprin A subunit beta [2] is 5.03 µM.

On to `O=C(CCNS(=O)(=O)c1ccc(C(=O)O)cc1)NO`, for which the IC50 on Meprin A subunit beta [2] was 0.34 µM.

In the case of `O=C(CCNS(=O)(=O)c1cc(Cl)c(O)c(Cl)c1)NO`, at Meprin A subunit beta [2], the IC50 stood at 0.4 µM.

In the case of `O=C(CCNS(=O)(=O)c1cccc(C(=O)O)c1)NO`, the IC50 on Meprin A subunit beta [2] was 0.22 µM.

For the compound `COc1ccc(S(=O)(=O)N(CC(=O)NO)Cc2cccc(C(=O)O)c2)cc1`, the IC50 came to 0.002 µM in data set [12]; 0.05 µM in data set [13]; 11.7 µM in data set [14]; 0.0003 µM at Collagenase 3 [15]; 3.29 µM on Meprin A subunit alpha; 1.24 µM in data set [16]. The Ratio IC50 in the data set listed under Homo sapiens [10] is 60; in the data set filed under Homo sapiens [11] it was over 100.
